Measurements taken from patent US20210161855A1, “5-LIPOXYGENASE ANTAGONISTS” (INSTITUTO DE MEDICINA MOLECULAR JOÃO LOBO ANTUNES, priority 2017, published 2021).
≈ marks a conversion by molar mass, not a printed value.

Columns and labels:
12-LO = molecular target: T1, 12-LO (Homo sapiens, UniProt P18054); assay: 12-LO inhibition in intact human neutrophils; assay type: cell-based; conditions: without DTT
T1 construct: endogenous in cells; host or cells: human blood neutrophil preparation
T1 sequence (P18054 1-663): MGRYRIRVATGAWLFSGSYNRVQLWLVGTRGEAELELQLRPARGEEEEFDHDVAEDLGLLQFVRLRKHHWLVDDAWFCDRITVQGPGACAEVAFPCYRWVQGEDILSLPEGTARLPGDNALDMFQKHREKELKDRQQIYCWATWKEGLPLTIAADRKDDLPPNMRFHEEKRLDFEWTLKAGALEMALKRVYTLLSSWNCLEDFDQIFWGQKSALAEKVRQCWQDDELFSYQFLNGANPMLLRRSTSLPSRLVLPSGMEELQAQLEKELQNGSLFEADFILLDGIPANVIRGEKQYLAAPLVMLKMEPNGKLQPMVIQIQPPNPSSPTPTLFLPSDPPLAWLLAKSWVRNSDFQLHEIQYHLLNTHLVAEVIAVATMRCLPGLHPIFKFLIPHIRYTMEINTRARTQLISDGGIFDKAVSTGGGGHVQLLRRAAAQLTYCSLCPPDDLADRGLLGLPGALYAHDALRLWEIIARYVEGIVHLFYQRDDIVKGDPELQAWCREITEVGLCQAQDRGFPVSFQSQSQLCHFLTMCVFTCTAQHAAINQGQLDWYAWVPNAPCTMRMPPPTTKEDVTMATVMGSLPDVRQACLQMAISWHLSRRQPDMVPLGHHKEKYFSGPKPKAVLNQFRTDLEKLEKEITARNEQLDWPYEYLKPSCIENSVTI
Method: Peripheral blood (University Hospital Jena, Germany) was withdrawn from healthy adult volunteers with consent that had not taken any anti-inflammatory drugs during the last 10 days, by venipuncture in heparinized tubes (16 IE heparin/mL blood). The blood was centrifuged at 4000 g for 20 min at 20° C. for preparation of leukocyte concentrates. Leukocyte concentrates were then subjected to dextran sedimentation and centrifugation on lymphocyte separation medium (LSM 1077, PAA, Colbe, Germany). Contaminating erythrocytes of pelleted neutrophils were removed by hypotonic Iysis. […] Method B. […] Cysteinyl-LTs C4, D4 and E4 were not detected (amounts were below detection limit), and oxidation products of LTB4 were not determined.

EP2 = EP2 (Homo sapiens, UniProt P43116); assay: Prostanoid EP2 receptor antagonism, functional assay; assay type: cell-based; conditions: 150 μM
5-LO = molecular target: T2, 5-LO (Homo sapiens, UniProt P09917); assay: Circular dichroism binding, protein melting curves
T2 sequence (P09917 1-674): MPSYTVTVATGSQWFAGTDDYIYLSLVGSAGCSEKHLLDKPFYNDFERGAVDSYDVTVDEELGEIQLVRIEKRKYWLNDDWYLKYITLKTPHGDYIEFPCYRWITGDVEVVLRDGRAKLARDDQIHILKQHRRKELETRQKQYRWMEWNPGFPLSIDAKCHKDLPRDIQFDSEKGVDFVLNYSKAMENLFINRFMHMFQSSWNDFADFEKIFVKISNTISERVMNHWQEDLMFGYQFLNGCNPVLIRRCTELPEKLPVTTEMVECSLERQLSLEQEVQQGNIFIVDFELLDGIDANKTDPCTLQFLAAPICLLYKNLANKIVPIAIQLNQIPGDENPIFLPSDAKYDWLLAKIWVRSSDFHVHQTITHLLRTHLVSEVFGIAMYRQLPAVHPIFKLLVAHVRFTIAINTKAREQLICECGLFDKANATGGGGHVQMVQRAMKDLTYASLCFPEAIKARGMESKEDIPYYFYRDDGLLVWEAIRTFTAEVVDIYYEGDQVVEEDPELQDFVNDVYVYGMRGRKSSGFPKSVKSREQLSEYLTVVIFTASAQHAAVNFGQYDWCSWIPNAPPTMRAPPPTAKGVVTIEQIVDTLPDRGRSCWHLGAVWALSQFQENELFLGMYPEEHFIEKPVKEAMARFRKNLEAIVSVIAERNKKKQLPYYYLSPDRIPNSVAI

[1] = tested on: Staphylococcus aureus ATCC 25923; assay: MIC/MBC assay, S. aureus; assay type: cell-based
Method: (§1) Escherichia coli K12 and Staphylococcus aureus ATCC 25923 were grown overnight at 37° C. and re-inoculated in 24-well plates containing 2.5 mL of Luria Bertani medium (LB) to give an optical density of ˜0.01 at 600 nm. Stock solutions of β-lapachone, and lapachol were prepared in DMSO (1% final concentration) and added to the cell suspensions to obtain final concentrations between 5-210 μM. Wells containing a growth control (cell suspensions with 1% DMSO) and a sterile media control were also prepared. The plates were incubated for 18 h at 37° C. and 90 r.p.m. The concentration of compound in the first well in the series that presented no sign of visible growth was reported as the MIC. The OD600 of the cultures was also measured. All the MIC wells were serially diluted in phosphate buffer saline (PBS) and plated onto LB agar plates.

Escherichia coli K12 = assay: MIC/MBC assay, E. coli; assay type: cell-based; conditions: read-out: Minimum bactericidal concentration
Method: as §1

[2] = mouse, in vivo, iv, 100 mg/kg

EP2, sequence (P43116 whole entry): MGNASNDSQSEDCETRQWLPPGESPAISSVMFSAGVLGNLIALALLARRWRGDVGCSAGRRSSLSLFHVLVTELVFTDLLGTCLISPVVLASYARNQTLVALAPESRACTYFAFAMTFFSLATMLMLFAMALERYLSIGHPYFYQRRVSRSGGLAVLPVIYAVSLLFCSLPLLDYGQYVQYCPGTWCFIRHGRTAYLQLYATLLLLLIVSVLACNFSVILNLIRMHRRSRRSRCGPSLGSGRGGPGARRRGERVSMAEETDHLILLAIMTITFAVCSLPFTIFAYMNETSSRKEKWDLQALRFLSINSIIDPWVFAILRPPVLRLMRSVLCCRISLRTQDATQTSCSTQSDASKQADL

Question: For `CC1(C)CCC2=C(O1)c1ccccc1C(=O)C2=O` [Compound 1, 3,4-dihydro-2,2-dimethyl-2H-naphtho[1,2-b]pyran-5,6-dione], which IC50 (12-LO) is on record?
Answer: > 30 µM

Question: What about the EP2 antagonist effect (EP2) of the same molecule?
Answer: 60%

Question: What about the Kd (5-LO) of the same molecule?
Answer: 5.7 µM

Question: What about the MIC ([1]; ATCC25923, 18 h, read-out: Minimum inhibitory concentration) of the same molecule?
Answer: 60 µM (≈ 14.5 µg/mL)

Question: What about the MBC ([1]; ATCC25923, read-out: Minimum bactericidal concentration) of the same molecule?
Answer: > 200 µM

Question: What about the MBC (Escherichia coli K12) of the same molecule?
Answer: > 200 µM

Question: And the “Toxicity at higher doses” value [2]?
Answer: toxicity
